Where two headings read alike, the source gives them in different places.
Tests used:
PKA = PKA (Homo sapiens, UniProt P17612); test: Kinase profiling; assay type: biochemical
p38 gamma MAPK = target: T1, p38 gamma MAPK (Homo sapiens, UniProt P53778); test: Kinase profiling; assay type: biochemical
T1 sequence (P53778 1-367): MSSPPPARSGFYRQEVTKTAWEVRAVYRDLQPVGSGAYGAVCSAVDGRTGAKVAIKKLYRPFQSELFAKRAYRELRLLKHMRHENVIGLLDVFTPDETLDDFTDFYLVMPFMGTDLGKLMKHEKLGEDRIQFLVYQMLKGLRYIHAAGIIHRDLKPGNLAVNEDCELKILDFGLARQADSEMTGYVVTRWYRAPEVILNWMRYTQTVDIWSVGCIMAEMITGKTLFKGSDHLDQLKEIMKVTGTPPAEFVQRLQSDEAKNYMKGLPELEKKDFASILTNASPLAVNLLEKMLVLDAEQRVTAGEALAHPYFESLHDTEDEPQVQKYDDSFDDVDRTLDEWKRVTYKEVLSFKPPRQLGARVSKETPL

PKB beta = PKB beta (Homo sapiens, UniProt P31751); test: Kinase profiling; assay type: biochemical
HER4 = HER4 (Homo sapiens, UniProt Q15303); test: Kinase profiling; assay type: biochemical
[1] = test system: Bone-marrow-derived macrophages; test: IL-10 mRNA (qPCR) in LPS-stimulated macrophages; assay type: cell-based; conditions: Mus musculus, Macrophage, read-out: EC50 for elevation of IL-10 mRNA
Description: Primary macrophages were generated by differentiating bone marrow from 6- to 12-week-old C57BL/6 mice for 7 days in Dulbecco's modified Eagle's medium (DMEM) supplemented with 5 ng/ml recombinant M-CSF (R&D systems), 2 mM glutamine, 10% FBS, penicillin and streptomycin. Bone-marrow-derived macrophages were differentiated on non-tissue-culture-treated plastic, harvested and replated at a density of 100000 cells/cm^2 per 0.1 ml on tissue culture-treated plastic in fresh medium before stimulation on day 8. RAW264.7 cells were cultured in DMEM containing 10% FBS, 2 mM glutamine and penicillin and streptomycin. […] Cells were treated for 1 h with or without inhibitors and then stimulated for up to 24 h with either 1 μg/ml Pam3CSK4 or 100 ng/ml LPS.
(§1) mRNA was extracted from cells using the MicroElute Total RNA kit following the manufacturers’ instructions (Omega Bio-Tek). cDNA was generated from 0.5 μg of total RNA using the iScript cDNA synthesis kit and quantified by quantitative real-time PCR (qPCR) using the SsoFast EvaGreen Supermix on a CFX384 real-time system (Bio-Rad Laboratories). The relative expression of each gene was calculated from CT values using the Pfaffl method and was normalized against the mRNA levels of housekeeping genes including 18S RNA and GAPDH.

DYRK3 = target: T2, DYRK3 (Homo sapiens, UniProt O43781); test: Kinase profiling; assay type: biochemical
T2 sequence (O43781 1-588): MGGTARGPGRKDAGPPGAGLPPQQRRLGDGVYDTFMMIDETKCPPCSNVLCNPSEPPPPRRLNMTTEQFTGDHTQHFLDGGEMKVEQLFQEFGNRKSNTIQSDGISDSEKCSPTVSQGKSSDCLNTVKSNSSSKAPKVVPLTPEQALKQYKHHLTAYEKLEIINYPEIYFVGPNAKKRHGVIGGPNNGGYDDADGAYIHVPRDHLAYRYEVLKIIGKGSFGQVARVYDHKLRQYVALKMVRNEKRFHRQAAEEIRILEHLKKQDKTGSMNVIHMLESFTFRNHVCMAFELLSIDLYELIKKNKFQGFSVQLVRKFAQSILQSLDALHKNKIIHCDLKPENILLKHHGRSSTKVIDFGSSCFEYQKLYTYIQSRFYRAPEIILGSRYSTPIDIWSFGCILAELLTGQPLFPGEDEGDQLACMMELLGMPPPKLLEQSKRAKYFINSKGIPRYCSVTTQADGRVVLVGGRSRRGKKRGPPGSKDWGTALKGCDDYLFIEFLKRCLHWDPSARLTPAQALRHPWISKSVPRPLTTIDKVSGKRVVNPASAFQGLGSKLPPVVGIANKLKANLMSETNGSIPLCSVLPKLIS

PLK1 = PLK1 (Homo sapiens, UniProt P53350); test: Kinase profiling; assay type: biochemical
IR = IR (Homo sapiens, UniProt P06213); test: Kinase profiling; assay type: biochemical
[2] = test system: Bone-marrow-derived macrophages; test: Pro-inflammatory cytokine secretion (BIOPLEX); assay type: cell-based, mouse; conditions: 3 μM bosutinib or 0.3 μM dasatinib 1 h, LPS 8 h
Description: The concentration of TNFα, IL-6, IL-10 and IL-12p40 in cell-free culture supernatants were measured using the Bio-Plex Pro Assay system (Bio-Rad).

TAK1 = target: T3, TAK1 (Homo sapiens, UniProt O43318); test: Kinase profiling; assay type: biochemical
T3 sequence (O43318 1-303 limits assumed): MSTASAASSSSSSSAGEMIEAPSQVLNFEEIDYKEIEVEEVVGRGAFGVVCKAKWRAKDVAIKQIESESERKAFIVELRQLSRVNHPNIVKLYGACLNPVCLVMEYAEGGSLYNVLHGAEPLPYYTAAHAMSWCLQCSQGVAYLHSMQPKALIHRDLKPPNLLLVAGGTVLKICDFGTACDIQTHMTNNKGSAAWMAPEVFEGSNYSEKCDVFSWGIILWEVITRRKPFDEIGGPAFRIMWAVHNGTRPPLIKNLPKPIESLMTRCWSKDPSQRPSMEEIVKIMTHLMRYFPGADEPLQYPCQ

PIM2 = PIM2 (Homo sapiens, UniProt Q9P1W9); test: Kinase profiling; assay type: biochemical
[3] = test system: Bone-marrow-derived macrophages; test: Markers of 'regulatory' macrophages (qPCR); assay type: cell-based, mouse; conditions: 3 μM bosutinib or 0.3 μM dasatinib 1 h, then LPS
Description: as §1, with “GAPDH. Results are reported relative to untreated control cells, which were set to 1.” for “GAPDH.”

PKB beta, sequence (P31751 whole entry): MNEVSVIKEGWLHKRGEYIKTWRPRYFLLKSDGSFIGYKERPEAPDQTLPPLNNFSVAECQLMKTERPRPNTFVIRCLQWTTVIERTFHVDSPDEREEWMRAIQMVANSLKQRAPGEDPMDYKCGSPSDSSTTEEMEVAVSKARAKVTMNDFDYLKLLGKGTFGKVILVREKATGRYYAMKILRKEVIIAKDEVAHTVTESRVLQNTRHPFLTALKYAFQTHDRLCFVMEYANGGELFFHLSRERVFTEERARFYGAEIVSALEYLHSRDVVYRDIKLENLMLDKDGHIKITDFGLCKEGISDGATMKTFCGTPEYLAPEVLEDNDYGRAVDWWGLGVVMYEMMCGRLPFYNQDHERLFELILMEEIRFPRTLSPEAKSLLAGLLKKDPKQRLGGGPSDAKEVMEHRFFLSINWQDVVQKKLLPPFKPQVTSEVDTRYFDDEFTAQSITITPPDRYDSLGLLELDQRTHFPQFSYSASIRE
PLK1, sequence (P53350 whole entry): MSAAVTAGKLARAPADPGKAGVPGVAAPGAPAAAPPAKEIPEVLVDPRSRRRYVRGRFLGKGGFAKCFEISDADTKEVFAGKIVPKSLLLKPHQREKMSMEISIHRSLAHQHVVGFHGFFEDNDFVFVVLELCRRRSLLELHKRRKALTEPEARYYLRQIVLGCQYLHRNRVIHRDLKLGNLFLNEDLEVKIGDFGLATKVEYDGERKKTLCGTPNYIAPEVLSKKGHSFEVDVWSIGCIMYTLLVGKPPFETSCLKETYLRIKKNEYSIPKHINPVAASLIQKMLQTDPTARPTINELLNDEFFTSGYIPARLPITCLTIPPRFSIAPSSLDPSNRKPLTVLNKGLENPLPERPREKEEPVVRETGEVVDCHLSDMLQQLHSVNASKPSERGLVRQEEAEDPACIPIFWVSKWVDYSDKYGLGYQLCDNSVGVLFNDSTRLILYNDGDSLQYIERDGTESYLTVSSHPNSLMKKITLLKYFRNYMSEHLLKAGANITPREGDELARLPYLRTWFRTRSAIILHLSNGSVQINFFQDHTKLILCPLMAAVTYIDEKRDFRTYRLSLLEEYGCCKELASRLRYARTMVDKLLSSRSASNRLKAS
PIM2, sequence (Q9P1W9 whole entry): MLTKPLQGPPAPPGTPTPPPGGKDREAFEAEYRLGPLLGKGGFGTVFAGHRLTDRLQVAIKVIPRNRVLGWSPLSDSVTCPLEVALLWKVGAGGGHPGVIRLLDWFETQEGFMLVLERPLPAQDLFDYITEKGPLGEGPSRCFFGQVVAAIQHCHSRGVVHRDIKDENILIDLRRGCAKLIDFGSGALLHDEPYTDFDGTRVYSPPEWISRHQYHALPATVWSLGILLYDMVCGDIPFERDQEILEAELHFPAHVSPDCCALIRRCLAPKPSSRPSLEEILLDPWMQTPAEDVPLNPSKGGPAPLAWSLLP
HER4, sequence (Q15303 26-1308): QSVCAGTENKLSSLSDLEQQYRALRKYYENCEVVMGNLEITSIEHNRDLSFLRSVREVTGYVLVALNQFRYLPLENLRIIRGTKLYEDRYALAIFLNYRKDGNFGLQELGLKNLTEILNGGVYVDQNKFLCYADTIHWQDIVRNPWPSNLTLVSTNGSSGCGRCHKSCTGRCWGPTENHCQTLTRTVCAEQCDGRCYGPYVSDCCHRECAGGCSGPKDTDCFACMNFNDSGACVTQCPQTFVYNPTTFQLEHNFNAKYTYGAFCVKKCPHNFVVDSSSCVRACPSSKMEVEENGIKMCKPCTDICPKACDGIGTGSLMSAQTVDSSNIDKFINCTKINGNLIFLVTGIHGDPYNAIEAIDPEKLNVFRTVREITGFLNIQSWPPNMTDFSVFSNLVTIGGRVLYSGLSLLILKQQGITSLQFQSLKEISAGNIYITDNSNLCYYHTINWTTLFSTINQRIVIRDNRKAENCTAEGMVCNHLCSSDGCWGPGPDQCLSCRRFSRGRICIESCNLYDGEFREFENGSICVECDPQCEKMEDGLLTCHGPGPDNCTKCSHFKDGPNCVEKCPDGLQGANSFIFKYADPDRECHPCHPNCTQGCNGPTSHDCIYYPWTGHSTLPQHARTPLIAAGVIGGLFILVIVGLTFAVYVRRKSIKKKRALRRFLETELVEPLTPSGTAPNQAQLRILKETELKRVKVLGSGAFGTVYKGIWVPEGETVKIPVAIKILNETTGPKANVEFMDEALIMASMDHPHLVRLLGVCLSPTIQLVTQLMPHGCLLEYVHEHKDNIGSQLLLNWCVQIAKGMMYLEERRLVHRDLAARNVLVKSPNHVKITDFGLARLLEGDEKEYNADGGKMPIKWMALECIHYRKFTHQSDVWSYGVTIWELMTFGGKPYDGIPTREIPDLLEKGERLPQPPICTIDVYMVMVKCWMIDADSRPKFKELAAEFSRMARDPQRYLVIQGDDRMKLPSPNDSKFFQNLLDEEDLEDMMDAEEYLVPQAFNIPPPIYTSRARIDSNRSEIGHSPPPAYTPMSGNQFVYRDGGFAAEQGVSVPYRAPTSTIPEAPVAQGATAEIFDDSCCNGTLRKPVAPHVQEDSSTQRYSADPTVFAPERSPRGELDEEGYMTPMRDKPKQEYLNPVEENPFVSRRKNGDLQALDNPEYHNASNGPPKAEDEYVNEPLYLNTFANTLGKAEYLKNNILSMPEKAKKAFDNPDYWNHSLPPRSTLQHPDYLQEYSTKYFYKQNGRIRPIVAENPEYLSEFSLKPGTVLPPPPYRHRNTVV
IR, sequence (P06213 28-1382): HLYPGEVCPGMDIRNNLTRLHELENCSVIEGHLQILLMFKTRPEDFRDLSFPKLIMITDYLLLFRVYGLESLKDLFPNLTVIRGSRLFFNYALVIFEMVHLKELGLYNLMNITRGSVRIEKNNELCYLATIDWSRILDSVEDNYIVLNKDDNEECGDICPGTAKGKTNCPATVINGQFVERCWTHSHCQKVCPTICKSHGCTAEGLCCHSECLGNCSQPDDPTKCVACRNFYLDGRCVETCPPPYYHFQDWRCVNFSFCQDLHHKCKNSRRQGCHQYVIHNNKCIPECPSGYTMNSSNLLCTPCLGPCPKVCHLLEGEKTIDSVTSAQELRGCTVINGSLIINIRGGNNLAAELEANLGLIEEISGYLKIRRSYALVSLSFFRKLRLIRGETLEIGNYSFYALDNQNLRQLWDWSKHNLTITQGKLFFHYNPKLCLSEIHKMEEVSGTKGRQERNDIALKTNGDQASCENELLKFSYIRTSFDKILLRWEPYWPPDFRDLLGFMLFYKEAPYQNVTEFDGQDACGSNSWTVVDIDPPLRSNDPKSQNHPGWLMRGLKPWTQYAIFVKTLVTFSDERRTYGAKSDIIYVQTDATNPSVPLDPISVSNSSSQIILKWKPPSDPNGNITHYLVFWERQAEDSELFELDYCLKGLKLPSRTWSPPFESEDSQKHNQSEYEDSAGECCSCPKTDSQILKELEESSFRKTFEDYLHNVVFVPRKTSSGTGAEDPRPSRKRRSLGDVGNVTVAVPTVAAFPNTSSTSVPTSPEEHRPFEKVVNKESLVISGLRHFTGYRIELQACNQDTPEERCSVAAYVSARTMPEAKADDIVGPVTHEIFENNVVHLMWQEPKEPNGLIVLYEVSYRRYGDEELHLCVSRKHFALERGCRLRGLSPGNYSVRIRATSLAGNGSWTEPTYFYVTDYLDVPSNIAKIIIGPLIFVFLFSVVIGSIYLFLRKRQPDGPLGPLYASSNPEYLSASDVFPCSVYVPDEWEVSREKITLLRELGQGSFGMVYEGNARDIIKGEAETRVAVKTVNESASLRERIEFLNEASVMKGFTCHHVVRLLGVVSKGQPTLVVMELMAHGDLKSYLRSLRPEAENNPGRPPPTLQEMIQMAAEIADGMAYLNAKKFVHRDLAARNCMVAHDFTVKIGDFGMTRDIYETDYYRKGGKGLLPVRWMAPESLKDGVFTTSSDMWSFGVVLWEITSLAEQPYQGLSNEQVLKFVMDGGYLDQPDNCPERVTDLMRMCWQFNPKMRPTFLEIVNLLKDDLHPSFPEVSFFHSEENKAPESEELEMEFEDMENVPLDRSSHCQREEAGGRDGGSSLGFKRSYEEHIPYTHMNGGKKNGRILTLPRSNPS

SMILES | remaining activity at 0.1 µM (PKA) | remaining activity at 1 µM (PKA) | remaining activity at 0.1 µM (p38 gamma MAPK) | remaining activity at 0.1 µM (PKB beta) | remaining activity at 1 µM (PKB beta) | remaining activity at 0.1 µM (HER4) | remaining activity at 1 µM (HER4) | remaining activity at 0.1 µM (DYRK3) | remaining activity at 1 µM (DYRK3) | remaining activity at 0.1 µM (PLK1) | remaining activity at 0.1 µM (IR) | remaining activity at 1 µM (IR) | Production of IL-6, IL-12p40 and TNFα [2] | remaining activity at 0.1 µM (TAK1) | remaining activity at 1 µM (TAK1) | remaining activity at 0.1 µM (PIM2) | remaining activity at 1 µM (PIM2) | Expression of SPHK1, LIGHT and arginase 1 [3] | also measured
Cc1nc(Nc2ncc(C(=O)Nc3c(C)cccc3Cl)s2)cc(N2CCN(CCO)CC2)n1 [Dasatinib] | 110 ± 12% | 121 ± 27% | 100 ± 4% | 94 ± 11% | 94 ± 2% | 27 ± 1% | 6% | 98 ± 7% | 104 ± 9% | 133 ± 18% | 99 ± 2% | 94 ± 7% | inhibited | 97 ± 23% | 99 ± 7% | 104 ± 3% | 105 ± 1% | elevated | remaining activity at 1 µM (p38 gamma MAPK; 1 µM): 105 ± 7%; EC50 ([1]; 1 h): 100 nM
COc1cc(Nc2c(C#N)cnc3cc(OCCCN4CCN(C)CC4)c(OC)cc23)c(Cl)cc1Cl [Bosutinib, bosutinib] | 111 ± 16% | 105 ± 7% | 88 ± 3% | 102 ± 6% | 90 ± 3% | 9% | 1 ± 1% | 85 ± 11% | 90 ± 16% | 97 ± 12% | 87 ± 7% | 107 ± 34% | inhibited | 41 ± 9% | 5% | 99% | 96 ± 8% | elevated | EC50 ([1]; drug 1 h, then LPS 1 h, qPCR, n=4): 320 nM; remaining activity at 1 µM (PLK1; 1 µM): 74 ± 6%

— PMC4286194 (Biochemical Journal, 2015)
